Source: BindingDB's records for patent US8633204 (Pfizer, 2014)

Molecular target: Phosphatidylinositol 4,5-bisphosphate 3-kinase catalytic subunit alpha isoform (Mus musculus, UniProt P42337)
Assay: Biochemical Assay
Conditions: pH 7.4; 25 °C
Description: Compounds of the present invention were evaluated for potency against PI3-Kα using an in vitro kinase assay. PI3-Kα activity is measured in vitro by determining the level of phosphorylation of the substrate PI(4,5)P2. The formation of product PI(3,4,5)P3 is monitored by binding to the Grip1 PH domain in a ligand displacement fluorescence polarization (FP) assay, in which the TAMRA-labeled PI(3,4,5)P3 complexed with Grip1 PH domain is displaced by PI(3,4,5)P3 formed in the PI3-Kα reaction resulting in a decrease in FP signal.

Chain of Phosphatidylinositol 4,5-bisphosphate 3-kinase catalytic subunit alpha isoform (P42337 whole entry, canonical isoform): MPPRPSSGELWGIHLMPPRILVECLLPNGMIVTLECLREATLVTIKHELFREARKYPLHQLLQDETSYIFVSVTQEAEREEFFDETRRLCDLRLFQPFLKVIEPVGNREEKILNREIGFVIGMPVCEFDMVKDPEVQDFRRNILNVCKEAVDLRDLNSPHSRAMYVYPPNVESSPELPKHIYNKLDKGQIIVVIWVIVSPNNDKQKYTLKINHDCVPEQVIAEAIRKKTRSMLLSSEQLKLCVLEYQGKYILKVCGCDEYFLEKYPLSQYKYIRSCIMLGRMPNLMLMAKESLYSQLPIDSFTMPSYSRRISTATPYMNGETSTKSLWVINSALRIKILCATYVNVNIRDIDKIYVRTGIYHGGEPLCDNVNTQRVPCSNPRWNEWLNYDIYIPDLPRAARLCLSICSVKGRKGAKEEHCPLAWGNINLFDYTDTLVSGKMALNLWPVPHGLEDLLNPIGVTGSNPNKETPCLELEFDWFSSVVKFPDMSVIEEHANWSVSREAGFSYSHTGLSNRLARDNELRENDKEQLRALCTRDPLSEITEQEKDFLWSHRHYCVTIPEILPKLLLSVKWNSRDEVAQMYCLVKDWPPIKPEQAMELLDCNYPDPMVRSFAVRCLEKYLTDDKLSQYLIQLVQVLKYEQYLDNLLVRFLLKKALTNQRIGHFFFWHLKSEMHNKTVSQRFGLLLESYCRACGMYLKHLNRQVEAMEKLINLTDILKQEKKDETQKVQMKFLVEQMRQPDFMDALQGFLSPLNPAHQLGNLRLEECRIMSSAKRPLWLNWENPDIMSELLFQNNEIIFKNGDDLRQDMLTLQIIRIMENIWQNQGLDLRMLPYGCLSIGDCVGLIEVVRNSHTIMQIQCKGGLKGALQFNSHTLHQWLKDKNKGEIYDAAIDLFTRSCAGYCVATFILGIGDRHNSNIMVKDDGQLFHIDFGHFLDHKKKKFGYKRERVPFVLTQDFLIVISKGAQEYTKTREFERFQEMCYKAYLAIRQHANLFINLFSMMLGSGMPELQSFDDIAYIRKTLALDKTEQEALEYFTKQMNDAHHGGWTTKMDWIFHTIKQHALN

Point of comparison: `Cc1nc(N)nc2c1cc(Br)c(=O)n2[C@H]1CC[C@H](O)CC1` [US8633204, 157], IC50 44 nM. Against it:
- Cc1nc(N)nc2c1cc(-c1cccnc1N)c(=O)n2C1CCCC1 [US8633204, 125] — 32-fold higher, 1430 nM
- CCNc1nc(C)c2cc(-c3ccc(O)c(OC)c3)c(=O)n(C3CCCC3)c2n1 [US8633204, 136] — 14-fold lower, 3.08 nM
- CCNc1nc(C)c2cc(-c3cccc(O)c3)c(=O)n(C3CCCC3)c2n1 [US8633204, 144] — 44-fold lower, 1.01 nM
- Cc1nc(N)nc2c1cc(Br)c(=O)n2CC(C)(C)O [US8633204, 167] — 15-fold higher, 680 nM
- Cc1nc(N)nc2c1cc(-c1cn[nH]c1)c(=O)n2C1CCC(=O)CC1 [US8633204, 176] — 3.7-fold lower, 12 nM
- Cc1nc(N)nc2c1cc(-c1cnn(C)c1)c(=O)n2C1CCCC1 [US8633204, 235] — within 1.5-fold, 32 nM
